Reference: patent publication US20230085307A1, “PYRIDAZINONE COMPOUND AND HERBICIDE” (NISSAN CHEMICAL CORPORATION, priority 2019, published 2023)

How the values were obtained:
lambsquarters = experiment: Test Example 5: herbicidal effect by foliage application, plastic box (Table 20, symbol O); format: in vivo, lambsquarters (Chenopodium album); conditions: foliage application; for effect on lambsquarters (O): 3 weeks after application
Procedure, shortened: (§1)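 Sow seeds spot-wise in sterilized diluvial soil; cover with ~1.5 cm soil. Grow 14 days in greenhouse, 25° C. to 30° C. Spray foliage with emulsion diluted to predetermined amount. Rate effect after 3 weeks.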

Italian ryegrass = experiment: Test Example 4: herbicidal effect by soil treatment (Table 19, symbol K); format: in vivo, Italian ryegrass (Lolium multiflorum)
Procedure, shortened: (§2)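 Applied as a water-diluted emulsion, the compound was sprayed onto soil covering newly sown seeds. Evaluation came three weeks after application, in a greenhouse held at 25° C. to 30° C.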

green foxtail [1] = experiment: Test Example 4: herbicidal effect by soil treatment (Table 19, symbol G); format: in vivo, green foxtail (Setaria viridis)
Procedure, shortened: as §2

oval-leafed pondweed [2] = experiment: Test Example 2: herbicidal activity, application during weed generation under submerged conditions (Table 17, symbol C); format: in vivo, oval-leafed pondweed (Monochoria vaginalis); conditions: application during weed generation, submerged conditions
Procedure, shortened: (§3)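 In this pot test, flooded alluvial soil (water depth 4 cm) holds all three species sown as a mixture. Once seedlings have one to two leaves, the compound's emulsion, thinned with water to the intended dose, is poured on the water; grading follows after three weeks on the earlier criteria.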

persian speedwell = experiment: Test Example 4: herbicidal effect by soil treatment (Table 19, symbol R); format: in vivo, Persian speedwell (Veronica persica)
Procedure, shortened: as §2

green foxtail [3] = experiment: Test Example 5: herbicidal effect by foliage application, plastic box (Table 20, symbol G); format: in vivo, green foxtail (Setaria viridis); conditions: foliage application; for effect on green foxtail (G): 3 weeks after application
Procedure, shortened: as §1

velvetleaf = experiment: Test Example 4: herbicidal effect by soil treatment (Table 19, symbol M); format: in vivo, velvetleaf (Abutilon theophrasti)
Procedure, shortened: as §2

Japanese bulrush [4] = experiment: Test Example 2: herbicidal activity, application during weed generation under submerged conditions (Table 17, symbol B); format: in vivo, Japanese bulrush (Schoenoplectus juncoides); conditions: application during weed generation, submerged conditions
Procedure, shortened: as §3

rice flat sedge = experiment: Test Example 3: herbicidal effect by foliage application, Wagner pot (Table 18, symbol E); format: in vivo, rice flat sedge (Cyperus iria)
Procedure, shortened: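 Plants were sown in alluvial soil held under 0.1–0.5 cm standing water and grown 14 days in a greenhouse at 25–30 °C. An emulsifiable formulation, water-diluted to the set dose, was then sprayed onto the foliage, and effects were scored three weeks later using previously defined criteria.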

southern crabgrass = experiment: Test Example 5: herbicidal effect by foliage application, plastic box (Table 20, symbol F); format: in vivo, southern crabgrass (Digitaria ciliaris); conditions: foliage application; for effect on southern crabgrass (F): 3 weeks after application
Procedure, shortened: as §1

Japanese bulrush [5] = experiment: Test Example 1: herbicidal activity, application before weed generation under submerged conditions (Table 16, symbol B); format: in vivo, Japanese bulrush (Schoenoplectus juncoides)
Procedure, shortened: (§4)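 Submerged Wagner pots (alluvial soil, 4 cm water) sown with weed seeds and planted with 2.5-leaf rice seedlings; emulsifiable concentrate diluted in water applied to water surface on sowing day. Held in greenhouse at 25-30 °C; injury scored 0-5 by herbicidal rate after three weeks.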

wild oat = experiment: Test Example 4: herbicidal effect by soil treatment (Table 19, symbol I); format: in vivo, wild oat (Avena fatua)
Procedure, shortened: as §2

windgrass [6] = experiment: Test Example 4: herbicidal effect by soil treatment (Table 19, symbol L); format: in vivo, windgrass (Apera spica-venti)
Procedure, shortened: as §2

oval-leafed pondweed [7] = experiment: Test Example 1: herbicidal activity, application before weed generation under submerged conditions (Table 16, symbol C); format: in vivo, oval-leafed pondweed (Monochoria vaginalis)
Procedure, shortened: as §4

windgrass [8] = experiment: Test Example 5: herbicidal effect by foliage application, plastic box (Table 20, symbol L); format: in vivo, windgrass (Apera spica-venti); conditions: foliage application; for effect on windgrass (L): 3 weeks after application
Procedure, shortened: as §1

chickweed = experiment: Test Example 5: herbicidal effect by foliage application, plastic box (Table 20, symbol P); format: in vivo, common chickweed (Stellaria media); conditions: foliage application, 320 g/ha, three weeks after application
Procedure, shortened: as §1

[9] = 320 g/ha, three weeks after application
[10] = amount of applied herbicide 320 g/ha

SMILES	effect on lambsquarters (O) (lambsquarters; 320 g/ha)	K: Italian ryegrass, herbicidal effect rating (Italian ryegrass; AAH 320 g/ha)	G: green foxtail, herbicidal effect rating (green foxtail [1]; AAH 320 g/ha)	herbicidal effect rating, C: oval-leafed pondweed (oval-leafed pondweed [2]; AAH 320 g/ha)	R: persian speedwell, herbicidal effect rating (persian speedwell; AAH 320 g/ha)	effect on green foxtail (G) (green foxtail [3]; 320 g/ha)	M: velvetleaf, herbicidal effect rating (velvetleaf; AAH 320 g/ha)	herbicidal effect rating, B: Japanese bulrush (Japanese bulrush [4]; AAH 320 g/ha)	herbicidal effect on E (rice flat sedge), rating 0-5 (rice flat sedge; 320 g/ha)	effect on southern crabgrass (F) (southern crabgrass; 320 g/ha)	Herbicidal effect on B: Japanese bulrush (grade 0-5) (Japanese bulrush [5]; 320 g/ha applied herbicide)	I: wild oat, herbicidal effect rating (wild oat; AAH 320 g/ha)	L: windgrass, herbicidal effect rating (windgrass [6]; AAH 320 g/ha)	Herbicidal effect on C: oval-leafed pondweed (grade 0-5) (oval-leafed pondweed [7]; 320 g/ha applied herbicide)	effect on windgrass (L) (windgrass [8]; 320 g/ha)	other results
C#CC(C)Oc1ccc(-c2sc3ccccc3c2-c2c(O)c(C)nn(C)c2=O)cc1 (racemic) [1-217]	5 (Herbicidal rate of 90% or more (almost completely withered))	0 (Herbicidal rate of 5% or less (almost no effect))	3 (Herbicidal rate of 40% or more and less than 70%)	3 (Herbicidal rate of 40% or more and less than 70%)	5 (Herbicidal rate of 90% or more (almost completely withered))	4 (Herbicidal rate of 70% or more and less than 90%)	0 (Herbicidal rate of 5% or less (almost no effect))	3 (Herbicidal rate of 40% or more and less than 70%)	3 (Herbicidal rate of 40% or more and less than 70%)	4 (Herbicidal rate of 70% or more and less than 90%)	5 (Herbicidal rate of 90% or more (almost completely withered))	0 (Herbicidal rate of 5% or less (almost no effect))	0 (Herbicidal rate of 5% or less (almost no effect))	3 (Herbicidal rate of 40% or more and less than 70%)	5 (Herbicidal rate of 90% or more (almost completely withered))	–
C#CC(C)Oc1ccc(-c2sc3ccccc3c2-c2c(OCOCCOC)c(C)nn(C)c2=O)cc1 (racemic) [1-218]	–	–	–	–	–	–	–	–	–	–	–	–	–	–	–	effect on lambsquarters (O) (lambsquarters; 187 g/ha): 4 (Herbicidal rate of 70% or more and less than 90%); K: Italian ryegrass, herbicidal effect rating (Italian ryegrass; AAH 187 g/ha): 0 (Herbicidal rate of 5% or less (almost no effect)); G: green foxtail, herbicidal effect rating (green foxtail [1]; AAH 187 g/ha): 3 (Herbicidal rate of 40% or more and less than 70%); herbicidal effect rating, C: oval-leafed pondweed (oval-leafed pondweed [2]; AAH 100 g/ha): 4 (Herbicidal rate of 70% or more and less than 90%); R: persian speedwell, herbicidal effect rating (persian speedwell; AAH 187 g/ha): 5 (Herbicidal rate of 90% or more (almost completely withered)); effect on green foxtail (G) (green foxtail [3]; 187 g/ha): 5 (Herbicidal rate of 90% or more (almost completely withered)); M: velvetleaf, herbicidal effect rating (velvetleaf; AAH 187 g/ha): 0 (Herbicidal rate of 5% or less (almost no effect)); herbicidal effect rating, B: Japanese bulrush (Japanese bulrush [4]; AAH 100 g/ha): 3 (Herbicidal rate of 40% or more and less than 70%); herbicidal effect on E (rice flat sedge), rating 0-5 (rice flat sedge; 100 g/ha): 4 (Herbicidal rate of 70% or more and less than 90%); effect on southern crabgrass (F) (southern crabgrass; 187 g/ha): 0 (Herbicidal rate of 5% or less (almost no effect)); Herbicidal effect on B: Japanese bulrush (grade 0-5) (Japanese bulrush [5]; 100 g/ha applied herbicide): 3 (Herbicidal rate of 40% or more and less than 70%); I: wild oat, herbicidal effect rating (wild oat; AAH 187 g/ha): 0 (Herbicidal rate of 5% or less (almost no effect)); L: windgrass, herbicidal effect rating (windgrass [6]; AAH 187 g/ha): 0 (Herbicidal rate of 5% or less (almost no effect)); Herbicidal effect on C: oval-leafed pondweed (grade 0-5) (oval-leafed pondweed [7]; 100 g/ha applied herbicide): 0 (Herbicidal rate of 5% or less (almost no effect)); effect on windgrass (L) (windgrass [8]; 187 g/ha): 0 (Herbicidal rate of 5% or less (almost no effect))
CCC(COc1ccc(-c2sc3ccccc3c2-c2c(O)c(C)nn(C)c2=O)cc1)OC (racemic) [1-230]	5 (Herbicidal rate of 90% or more (almost completely withered))	4 (Herbicidal rate of 70% or more and less than 90%)	4 (Herbicidal rate of 70% or more and less than 90%)	4 (Herbicidal rate of 70% or more and less than 90%)	5 (Herbicidal rate of 90% or more (almost completely withered))	5 (Herbicidal rate of 90% or more (almost completely withered))	4 (Herbicidal rate of 70% or more and less than 90%)	3 (Herbicidal rate of 40% or more and less than 70%)	3 (Herbicidal rate of 40% or more and less than 70%)	5 (Herbicidal rate of 90% or more (almost completely withered))	5 (Herbicidal rate of 90% or more (almost completely withered))	0 (Herbicidal rate of 5% or less (almost no effect))	0 (Herbicidal rate of 5% or less (almost no effect))	4 (Herbicidal rate of 70% or more and less than 90%)	4 (Herbicidal rate of 70% or more and less than 90%)	–
Cc1cc(-c2sc3ccccc3c2-c2c(O)c(C)nn(C)c2=O)ccc1F [1-051]	–	–	–	0 (Herbicidal rate of 5% or less (almost no effect))	–	–	–	0 (Herbicidal rate of 5% or less (almost no effect))	5 (Herbicidal rate of 90% or more (almost completely withered))	–	0 (Herbicidal rate of 5% or less (almost no effect))	–	–	0 (Herbicidal rate of 5% or less (almost no effect))	–	herbicidal effect grade, O: lambsquarters (lambsquarters; [9]): 3 (Herbicidal rate of 40% or more and less than 70%); herbicidal effect rating, K: Italian ryegrass (Italian ryegrass; [10]): 3 (Herbicidal rate of 40% or more and less than 70%); herbicidal effect rating, G: green foxtail (green foxtail [1]; [10]): 5 (Herbicidal rate of 90% or more (almost completely withered)); herbicidal effect grade, P: chickweed (chickweed): 5 (Herbicidal rate of 90% or more (almost completely withered)); herbicidal effect rating, R: persian speedwell (persian speedwell; [10]): 4 (Herbicidal rate of 70% or more and less than 90%); herbicidal effect grade, G: green foxtail (green foxtail [3]; [9]): 5 (Herbicidal rate of 90% or more (almost completely withered)); herbicidal effect rating, M: velvetleaf (velvetleaf; [10]): 4 (Herbicidal rate of 70% or more and less than 90%); herbicidal effect grade, F: southern crabgrass (southern crabgrass; [9]): 3 (Herbicidal rate of 40% or more and less than 70%); herbicidal effect rating, I: wild oat (wild oat; [10]): 0 (Herbicidal rate of 5% or less (almost no effect)); herbicidal effect grade, L: windgrass (windgrass [8]; [9]): 4 (Herbicidal rate of 70% or more and less than 90%)
Cc1nn(C)c(=O)c(-c2c(-c3ccc(OCCBr)cc3)sc3ccccc23)c1O [1-204]	4 (Herbicidal rate of 70% or more and less than 90%)	0 (Herbicidal rate of 5% or less (almost no effect))	0 (Herbicidal rate of 5% or less (almost no effect))	2 (Herbicidal rate of 20% or more and less than 40%)	4 (Herbicidal rate of 70% or more and less than 90%)	4 (Herbicidal rate of 70% or more and less than 90%)	0 (Herbicidal rate of 5% or less (almost no effect))	3 (Herbicidal rate of 40% or more and less than 70%)	5 (Herbicidal rate of 90% or more (almost completely withered))	4 (Herbicidal rate of 70% or more and less than 90%)	3 (Herbicidal rate of 40% or more and less than 70%)	0 (Herbicidal rate of 5% or less (almost no effect))	0 (Herbicidal rate of 5% or less (almost no effect))	3 (Herbicidal rate of 40% or more and less than 70%)	0 (Herbicidal rate of 5% or less (almost no effect))	–
